These results are taken from publication PMC8592027, “Structure-Guided Design of D-Galactal Derivatives with High Affinity and Selectivity for the Galectin-8 N-Terminal Domain” (ACS Medicinal Chemistry Letters, 2021).

Data set [1] addresses T1, galectin-8C (C-terminal domain) (Homo sapiens, UniProt O00214).
T1 construct: galectins (N = N-terminal domain, C = C-terminal domain)
T1 sequence (O00214 187-317 limits assumed): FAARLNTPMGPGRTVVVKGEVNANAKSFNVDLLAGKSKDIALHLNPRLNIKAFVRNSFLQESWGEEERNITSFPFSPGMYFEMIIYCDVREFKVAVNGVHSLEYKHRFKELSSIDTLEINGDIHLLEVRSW
Nature of the data set: Competitive fluorescence polarization assay, galectin-8C. Particulars: mean ± SEM of n = 4–8. The format is binding.

Data set [2] deals with T2, galectin-8N (galectin-8 N-terminal domain) (Homo sapiens, UniProt O00214).
T2 construct: selective ligand for the galectin-8 N-terminal domain (galectin-8N); made in house
T2 sequence (O00214 19-152 limits assumed): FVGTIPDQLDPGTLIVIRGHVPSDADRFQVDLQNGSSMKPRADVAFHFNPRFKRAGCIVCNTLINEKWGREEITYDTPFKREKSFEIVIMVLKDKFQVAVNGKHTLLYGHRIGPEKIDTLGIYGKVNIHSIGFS
The experiment in a line: Competitive fluorescence polarization assay, galectin-8N. The format is binding. As to conditions: mean ± SEM of n = 4–8. Here is the method: All synthesized D-galactal derivatives had higher binding affinities for galectin-8N than D-galactal 3.
(§1) 1. Competitive fluorescence polarization experiments:
(§2) Human galectins -1, -3, -4N, -4C, -7, -8N, -9N, and -9C were expressed and purified as previously described 30,41. Fluorescence polarisation experiments were performed using the PHERAstar FS plat e reader (software version 2.10 R3), and the fluorescence anisotropy of fluorescein tagged probes was measured by excitation at 485 nm and emission at 520 nm. The specific conditions for galectins -1, -3, -4N, -4C, -7, -8N, -9N, and -9C were kept as report ed30,41,42. The synthesised compounds were dissolved in pure DMSO at 20 mM concentration and diluted in PBS to 3-6 different concentrations, and each concentration was tested in duplicate. The highest inhibitor concentrations tested were 1.5 mM. The

The target in data set [3] is T3, galectin-4C (C-terminal domain) (Homo sapiens, UniProt P56470).
T3 construct: galectins (N = N-terminal domain, C = C-terminal domain); made in house
T3 sequence (P56470 194-323 limits assumed): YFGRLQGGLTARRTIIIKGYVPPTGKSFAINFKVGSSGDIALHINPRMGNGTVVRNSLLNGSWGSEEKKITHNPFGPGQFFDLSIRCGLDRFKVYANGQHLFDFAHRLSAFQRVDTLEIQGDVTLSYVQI
The experiment in a line: Competitive fluorescence polarization assay, galectin-4C. The format is binding. Particulars: mean ± SEM of n = 4–8. Here is the method: as §1, §2

Data set [4] has as its target T4, galectin-2 (Homo sapiens, UniProt P05162).
T4 sequence (P05162 1-132): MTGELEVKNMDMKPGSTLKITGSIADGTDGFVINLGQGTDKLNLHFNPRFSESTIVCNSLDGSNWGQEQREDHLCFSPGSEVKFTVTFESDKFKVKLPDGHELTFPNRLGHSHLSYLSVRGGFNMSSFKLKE
Nature of the data set: Competitive fluorescence polarization assay, galectin-2. The format is binding. Particulars: mean ± SEM of n = 4–8.

In data set [5] the target is T5, galectin-9C (C-terminal domain) (Homo sapiens, UniProt O00182).
T5 construct: galectins (N = N-terminal domain, C = C-terminal domain); made in house
Nature of the data set: Competitive fluorescence polarization assay, galectin-9C. The format is binding. As to conditions: mean ± SEM of n = 4–8. The protocol:
as §1, §2

Data set [6] addresses T6, galectin-4N (N-terminal domain) (Homo sapiens, UniProt P56470).
T6 construct: galectins (N = N-terminal domain, C = C-terminal domain); made in house
T6 sequence (P56470 19-150 limits assumed): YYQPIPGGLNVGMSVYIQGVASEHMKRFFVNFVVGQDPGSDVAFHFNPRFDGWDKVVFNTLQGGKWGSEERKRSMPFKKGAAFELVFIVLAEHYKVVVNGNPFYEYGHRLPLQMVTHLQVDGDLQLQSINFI
Nature of the data set: Competitive fluorescence polarization assay, galectin-4N. The format is binding. As to conditions: mean ± SEM of n = 4–8. The protocol: as §1, §2

Data set [7] has as its target T7, galectin-7 (Homo sapiens, UniProt P47929).
T7 construct: made in house
Nature of the data set: Competitive fluorescence polarization assay, galectin-7. The format is binding. Particulars: mean ± SEM of n = 4–8. The protocol:
as §1, §2

The target of data set [8] is T8, galectin-3 (Homo sapiens, UniProt P17931).
T8 construct: made in house
The experiment in a line: Competitive fluorescence polarization assay, galectin-3. The format is binding. As to conditions: mean ± SEM of n = 4–8. The protocol: as §1, §2

In data set [9] the target is T9, galectin-1 (Homo sapiens, UniProt P09382).
T9 construct: made in house
The experiment in a line: Competitive fluorescence polarization assay, galectin-1. The format is binding. Particulars: mean ± SEM of n = 4–8. The protocol:
as §1, §2

Data set [10] addresses T10, galectin-9N (N-terminal domain) (Homo sapiens, UniProt O00182).
T10 construct: galectins (N = N-terminal domain, C = C-terminal domain); made in house
Nature of the data set: Competitive fluorescence polarization assay, galectin-9N. The format is binding. Particulars: mean ± SEM of n = 4–8. Here is the method: as §1, §2

Data set [11] deals with T4, galectin-2. Further details: method as in PMID 30117507, PMID 15889175, doi:10.1139/cjc-2015-0598. Particulars: cited from earlier work.
The target of data set [12] is T10, galectin-9N (N-terminal domain). As to conditions: cited from earlier work.
In data set [13] the target is T5, galectin-9C (C-terminal domain). As to conditions: cited from earlier work.
Data set [14] has as its system K562 cancer cell line. The experiment in a line: MTS metabolic activity (cytotoxicity) assay, K562. The format is cell-based. Particulars: concentrations 1 to 100 μM, 24 hours. The protocol:
(§3) We have investigated the cytotoxicity of the compounds 1, 6a, and 6c via a (3-(4,5-dimethylthiazol-2-yl)-5-(3-carboxymethoxyphenyl)-2-(4-sulfophenyl)-2H-tetrazolium) (MTS) assay in K562 and MDA-MB-231 cancer cell lines to establish the direct antitumor activity of compounds, as well as human peripheral blood mononuclear cells (PBMCs), to evaluate their safety.
(§4) Metabolic activity assay:
(§5) The metabolic activities of the cell lines were determined using the CellTiter 96 Aqueous One Solution cell proliferation assay (MTS Reagents, Promega, Madison, WI, USA), according to the manufacturer instructions. Briefly, the cells were treated with the selected compounds in 0.1% dimethyl sulfoxide (DMSO; vehicle), 0.1% DMSO (control vehicle), or medium (control) and seeded at a cell density of 5,500 cells/well (MDA-MB-231 cells) or 4 x 10^4 cells/well (K562 cells), 7000 cells/well (HepG2 cells) or 1 x 10^5 cells/well (human PBMCs) in duplicates (MDA-MB-231, K562, and […]) or triplicates for HepG2 cells (100 µL), in sterile 96-well plates. For the MDA-MB-231 and HepG2, the cells were left to adhere overnight before adding the compounds. The plates were then incubated for 24 hours (48 hours for HepG2), after which 15 µL of MTS reagent was added to each well. After 30-90 minute of incubation, the absorbance was measured at 492 nm using a microplate reader (Synergy HTX Multi-Mode; BioTek Instruments, Inc., VT, USA). […]
(§6) Bead Array Human inflammatory cytokine Kit (content: IL-1, IL-6, IL-8, IL-10, IL-12p). The flow cytometric analyses were performed on an Attune NxT flow cytometer (Thermo Fisher Scientific, […]
(§7) Data are represented as means ± standard deviation (SD) from three representative independent experiments.
(§8) All experiments were performed at least twice, with average values expressed as means ± SD. All data were analyzed with the statistical software GraphPad Prism 8.0 (GraphPad Software, Inc., CA, USA). by one-way ANOVA followed with Dunnett’s multiple compar ison test. Differences were considered non-significant for p > 0.05, and significant (*) for p < 0.05. […]

In data set [15] the test system is MDA-MB-231 cancer cell line. The experiment in a line: MTS metabolic activity (cytotoxicity) assay, MDA-MB-231. The format is cell-based, human. Particulars: concentrations 1 to 100 μM, 24 hours. Here is the method:
as §3, §4, §5, §6, §7, §8

Data set [16] deals with human peripheral blood mononuclear cells (PBMCs). Nature of the data set: MTS metabolic activity (cytotoxicity) assay, PBMCs. The format is cell-based. Particulars: concentrations up to 100 μM, 24 hours. Here is the method:
as §3, §4, §5, §6, §7, §8

Read-outs that look alike come from different tables or passages of the source. Some results are limits rather than exact numbers.

T10 sequence (O00182 17-148 limits assumed): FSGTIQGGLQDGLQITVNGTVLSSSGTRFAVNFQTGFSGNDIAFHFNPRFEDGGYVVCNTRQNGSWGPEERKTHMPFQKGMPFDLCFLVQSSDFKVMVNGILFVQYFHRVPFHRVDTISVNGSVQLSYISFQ
T5 sequence (O00182 227-355 limits assumed): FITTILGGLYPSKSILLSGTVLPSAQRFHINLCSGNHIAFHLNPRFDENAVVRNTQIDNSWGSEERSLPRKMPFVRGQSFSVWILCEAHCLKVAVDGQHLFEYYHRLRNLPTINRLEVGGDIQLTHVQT
T9 sequence (P09382 whole entry): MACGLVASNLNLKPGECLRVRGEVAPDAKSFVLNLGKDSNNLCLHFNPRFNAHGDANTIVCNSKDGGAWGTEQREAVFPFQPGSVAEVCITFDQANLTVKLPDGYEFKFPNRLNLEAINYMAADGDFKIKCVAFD
T7 sequence (P47929 whole entry): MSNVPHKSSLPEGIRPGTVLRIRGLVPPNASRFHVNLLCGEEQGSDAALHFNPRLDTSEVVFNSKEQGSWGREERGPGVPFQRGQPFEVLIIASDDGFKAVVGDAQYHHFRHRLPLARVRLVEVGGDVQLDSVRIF
T8 sequence (P17931 whole entry): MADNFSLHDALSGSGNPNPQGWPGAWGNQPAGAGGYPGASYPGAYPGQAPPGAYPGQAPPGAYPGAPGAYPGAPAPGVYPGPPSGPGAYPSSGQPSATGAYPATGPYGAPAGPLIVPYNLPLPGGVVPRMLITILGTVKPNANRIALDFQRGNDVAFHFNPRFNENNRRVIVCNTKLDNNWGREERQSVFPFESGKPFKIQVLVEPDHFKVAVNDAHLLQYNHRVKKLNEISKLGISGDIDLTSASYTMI

Consider `O=C(O)c1ccc2ccc(CO[C@@H]3C=CO[C@H](CO)[C@@H]3O)nc2c1` [compound 9], for which the Kd in data set [1] was 4700 ± 22 µM; in data set [2], 48 ± 6 µM; in [3] it was 2800 ± 770 µM; in data set [4], 1100 ± 200 µM; in [5], > 1500 µM; in [6], > 1500 µM. Besides, the dissociation constant (Kd) in data set [7] is > 1500 µM; in [8], 590 ± 78 µM; in data set [9] it was 3600 µM; in data set [10], 1800 ± 160 µM.
Take `CO[C@@H]1O[C@H](CO)[C@H](O)[C@H](O)[C@H]1O` [methyl β-D-galactoside]: the figures for the Kd in data set [11], in data set [12] and in data set [13] were 13000 µM, 3300 µM and 8600 ± 7310 µM, respectively.
Turning to `O=C(O)c1ccc2nc(CO[C@@H]3C=CO[C@H](CO)[C@@H]3O)[nH]c2c1` [6c], the Kd in [2] is 46 ± 4 µM; in data set [3], 1900 ± 400 µM; in data set [4] it was 990 ± 170 µM; in [5], 2500 µM; in data set [6] it was 1400 ± 230 µM; in data set [7], > 1500 µM. The Kd is 550 ± 32 µM in data set [8], > 1500 µM in [9] and > 1500 µM in data set [10]. In addition, the “cell viability (MTS), K562” value in [14] is “None of the compounds decreased the viability”. In [15], the “cell viability (MTS), MDA-MB-231” value was “None of the compounds decreased the viability”. Besides, the “direct cytotoxicity (MTS), PBMCs” value in data set [16] is listed as “lack of direct cytotoxicity”.
